Reference: PubChem BioAssay AID1963851 (Molecular Pharmacology Branch, DTP, NCI, 2024)

System: 188146-221-R-J1-PDC complex spheroid viability
Assay: Anticancer human tumor 188146-221-R-J1-PDC patient-derived colon adenocarcinoma cell line growth inhibition [POLQ]
Settings: for IC50: curve of first compound; for viability, T/C: stronger effect = lower value
Summary of the method: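 Patient-derived tumour cells were co-cultured with HUVEC and mesenchymal stem cells as multicellular spheroids at 37 °C. They were treated with POLQ inhibitors (novobiocin, ART-558, RP6685) alone or combined with other agents. Top concentrations were at or near clinical Cmax (otherwise 10 microM; SN-38 at 1 microM), decreasing in half-log steps.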

[1] = second compound 0.0316 µM, first compound 0.0316 µM
[2] = second compound 0.0316 µM, first compound 0.1 µM
[3] = second compound 0.0316 µM, first compound 0.316 µM
[4] = second compound 0.0316 µM, first compound 1 µM
[5] = second compound 0.0316 µM, first compound 3.16 µM
[6] = second compound 0.0316 µM, first compound 10 µM
[7] = second compound 0.1 µM, first compound 0.0316 µM
[8] = second compound 0.1 µM, first compound 0.1 µM
[9] = second compound 0.1 µM, first compound 0.316 µM
[10] = second compound 0.1 µM, first compound 1 µM
[11] = second compound 0.1 µM, first compound 3.16 µM
[12] = second compound 0.1 µM, first compound 10 µM
[13] = second compound 0.316 µM, first compound 0.0316 µM
[14] = second compound 0.316 µM, first compound 0.1 µM
[15] = second compound 0.316 µM, first compound 0.316 µM
[16] = second compound 0.316 µM, first compound 1 µM
[17] = second compound 0.316 µM, first compound 3.16 µM
[18] = second compound 0.316 µM, first compound 10 µM
[19] = second compound 1 µM, first compound 0.0316 µM
[20] = second compound 1 µM, first compound 0.1 µM
[21] = second compound 1 µM, first compound 0.316 µM
[22] = second compound 1 µM, first compound 1 µM
[23] = second compound 1 µM, first compound 3.16 µM
[24] = second compound 1 µM, first compound 10 µM
[25] = second compound 3.16 µM, first compound 0.0316 µM
[26] = second compound 3.16 µM, first compound 0.1 µM
[27] = second compound 3.16 µM, first compound 0.316 µM
[28] = second compound 3.16 µM, first compound 1 µM
[29] = second compound 3.16 µM, first compound 3.16 µM
[30] = second compound 3.16 µM, first compound 10 µM
[31] = second compound 10 µM, first compound 0.0316 µM
[32] = second compound 10 µM, first compound 0.1 µM
[33] = second compound 10 µM, first compound 0.316 µM
[34] = second compound 10 µM, first compound 1 µM
[35] = second compound 10 µM, first compound 3.16 µM
[36] = second compound 10 µM, first compound 10 µM
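Note: spheroids exposed to compounds for seven days.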
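Throughout, for viability, T/C: 100% = DMSO vehicle control viability.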

CC(C)n1c(=O)n(C)c2cnc3cc(F)c(-c4ccc(OCCCN5CCCCC5)nc4)cc3c21 + Cc1cccc(N(C)C(=O)C2C(O)CCN2c2nc(C)cc(C(F)(F)F)c2C#N)c1
IC50 (second compound 0.0316 µM): > 10000 nM | IC50 (second compound 0.1 µM): > 10000 nM | IC50 (second compound 0.316 µM): > 10000 nM | IC50 (second compound 1 µM): > 10000 nM | IC50 (second compound 3.16 µM): > 10000 nM | IC50 (second compound 10 µM): > 10000 nM | viability, T/C [1]: 110% | viability, T/C [2]: 97.9% | viability, T/C [3]: 100% | viability, T/C [4]: 106% | viability, T/C [5]: 102% | viability, T/C [6]: 83.7% | viability, T/C [7]: 109% | viability, T/C [8]: 98.5% | viability, T/C [9]: 107% | viability, T/C [10]: 113% | viability, T/C [11]: 90.5% | viability, T/C [12]: 89.1% | viability, T/C [13]: 108% | viability, T/C [14]: 115% | viability, T/C [15]: 98.7% | viability, T/C [16]: 100% | viability, T/C [17]: 85.4% | viability, T/C [18]: 85.9% | viability, T/C [19]: 111% | viability, T/C [20]: 107% | viability, T/C [21]: 104% | viability, T/C [22]: 93% | viability, T/C [23]: 88.6% | viability, T/C [24]: 86.5% | viability, T/C [25]: 103% | viability, T/C [26]: 104% | viability, T/C [27]: 100% | viability, T/C [28]: 82% | viability, T/C [29]: 99.6% | viability, T/C [30]: 81.8% | viability, T/C [31]: 91.6% | viability, T/C [32]: 85.8% | viability, T/C [33]: 101% | viability, T/C [34]: 97.4% | viability, T/C [35]: 93.7% | viability, T/C [36]: 95%

COc1cc(C2c3cc4c(cc3C(OC3OC5COC(C)OC5C(O)C3O)C3COC(=O)C23)OCO4)cc(OC)c1O (stereo unspecified) + Cc1cccc(N(C)C(=O)C2C(O)CCN2c2nc(C)cc(C(F)(F)F)c2C#N)c1
IC50 (second compound 0.0316 µM): 887 nM | IC50 (second compound 0.1 µM): 789 nM | IC50 (second compound 0.316 µM): 723 nM | IC50 (second compound 1 µM): 748 nM | IC50 (second compound 3.16 µM): 664 nM | IC50 (second compound 10 µM): 483 nM | viability, T/C [1]: 115% | viability, T/C [2]: 99.9% | viability, T/C [3]: 77.3% | viability, T/C [4]: 47.6% | viability, T/C [5]: 27.5% | viability, T/C [6]: 25.9% | viability, T/C [7]: 111% | viability, T/C [8]: 99.2% | viability, T/C [9]: 77.8% | viability, T/C [10]: 43.5% | viability, T/C [11]: 25.1% | viability, T/C [12]: 28.3% | viability, T/C [13]: 108% | viability, T/C [14]: 102% | viability, T/C [15]: 71.7% | viability, T/C [16]: 43% | viability, T/C [17]: 26.4% | viability, T/C [18]: 28.7% | viability, T/C [19]: 108% | viability, T/C [20]: 104% | viability, T/C [21]: 70.5% | viability, T/C [22]: 45.6% | viability, T/C [23]: 27.2% | viability, T/C [24]: 30.8% | viability, T/C [25]: 101% | viability, T/C [26]: 103% | viability, T/C [27]: 70.1% | viability, T/C [28]: 40.6% | viability, T/C [29]: 29.4% | viability, T/C [30]: 31.1% | viability, T/C [31]: 93.1% | viability, T/C [32]: 79.6% | viability, T/C [33]: 61.2% | viability, T/C [34]: 32.4% | viability, T/C [35]: 29.1% | viability, T/C [36]: 32.8%

CC(=O)O[C@H]1C(=O)[C@@]2(C)[C@H]([C@H](OC(=O)c3ccccc3)[C@]3(O)C[C@H](OC(=O)[C@H](O)[C@@H](NC(=O)c4ccccc4)c4ccccc4)C(C)=C1C3(C)C)[C@]1(OC(C)=O)CO[C@@H]1C[C@@H]2O + Nc1ccc(C#CCN(C(=O)Cc2ncc(C(F)(F)F)cc2C(F)(F)F)c2ccc(F)cc2)nn1
IC50 (second compound 0.0316 µM): 13.6 nM | IC50 (second compound 0.1 µM): 12.5 nM | IC50 (second compound 0.316 µM): 14.5 nM | IC50 (second compound 1 µM): 10.4 nM | IC50 (second compound 3.16 µM): 10.5 nM | IC50 (second compound 10 µM): < 9.49 nM | viability, T/C (second compound 0.0316 µM, first compound 0.00949 µM): 63.4% | viability, T/C (second compound 0.0316 µM, first compound 0.03 µM): 20.8% | viability, T/C (second compound 0.0316 µM, first compound 0.0949 µM): 12.1% | viability, T/C (second compound 0.0316 µM, first compound 0.3 µM): 12.3% | viability, T/C (second compound 0.0316 µM, first compound 0.949 µM): 12.3% | viability, T/C (second compound 0.0316 µM, first compound 3 µM): 11.4% | viability, T/C (second compound 0.1 µM, first compound 0.00949 µM): 59.2% | viability, T/C (second compound 0.1 µM, first compound 0.03 µM): 22.4% | viability, T/C (second compound 0.1 µM, first compound 0.0949 µM): 12.4% | viability, T/C (second compound 0.1 µM, first compound 0.3 µM): 11.6% | viability, T/C (second compound 0.1 µM, first compound 0.949 µM): 13.2% | viability, T/C (second compound 0.1 µM, first compound 3 µM): 17.6% | viability, T/C (second compound 0.316 µM, first compound 0.00949 µM): 67.8% | viability, T/C (second compound 0.316 µM, first compound 0.03 µM): 19.9% | viability, T/C (second compound 0.316 µM, first compound 0.0949 µM): 11.4% | viability, T/C (second compound 0.316 µM, first compound 0.3 µM): 13.2% | viability, T/C (second compound 0.316 µM, first compound 0.949 µM): 12.4% | viability, T/C (second compound 0.316 µM, first compound 3 µM): 12.9% | viability, T/C (second compound 1 µM, first compound 0.00949 µM): 53.1% | viability, T/C (second compound 1 µM, first compound 0.03 µM): 16% | viability, T/C (second compound 1 µM, first compound 0.0949 µM): 14% | viability, T/C (second compound 1 µM, first compound 0.3 µM): 10.8% | viability, T/C (second compound 1 µM, first compound 0.949 µM): 12.7% | viability, T/C (second compound 1 µM, first compound 3 µM): 13.6% | viability, T/C (second compound 3.16 µM, first compound 0.00949 µM): 53.4% | viability, T/C (second compound 3.16 µM, first compound 0.03 µM): 16.5% | viability, T/C (second compound 3.16 µM, first compound 0.0949 µM): 14.4% | viability, T/C (second compound 3.16 µM, first compound 0.3 µM): 12.5% | viability, T/C (second compound 3.16 µM, first compound 0.949 µM): 12.9% | viability, T/C (second compound 3.16 µM, first compound 3 µM): 14% | viability, T/C (second compound 10 µM, first compound 0.00949 µM): 45.5% | viability, T/C (second compound 10 µM, first compound 0.03 µM): 16.9% | viability, T/C (second compound 10 µM, first compound 0.0949 µM): 15.8% | viability, T/C (second compound 10 µM, first compound 0.3 µM): 13.3% | viability, T/C (second compound 10 µM, first compound 0.949 µM): 14.4% | viability, T/C (second compound 10 µM, first compound 3 µM): 17.6%
